Reference: PubChem BioAssay (NCI)
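Assay format: 96-well plates, 48-hour exposure. TGI denotes the concentration required for complete inhibition of growth.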

Key:
Experiment in all cases: inhibition of tumour cell growth, NCI panel, 48 h
[1] = system: OVCAR-5 ovarian
[2] = system: KM12 colon
[3] = system: SW-620 colon
[4] = system: UO-31 renal
[5] = system: SR leukemia
[6] = system: HT29 colon
[7] = system: NCI-H522 lung
[8] = system: OVCAR-4 ovarian
[9] = system: IGROV1 ovarian
[10] = system: PC-3 prostate
[11] = system: CCRF-CEM leukemia

Measured: TGI

CCCCc1ccc(Nc2nc(Cl)c3c(ncn3C3CC(Oc4ccc(C)cc4)C(COc4ccc(C)cc4)O3)n2)cc1 (stereo not drawn)
> 100 µM: all assays above

COC(=O)C(Cc1c[nH]c2ccccc12)NP(=O)(O)OCC1OC(n2cc(Br)c(=O)[nH]c2=O)CC1O (stereo not drawn)
> 100 µM: all assays above

Cn1c2ccccc2c2cc(N3CCCC3)c3c(c21)C(=O)N(c1ccccc1)C3=O
> 100 µM: all assays above
